Test results reported in article PMC10950972, “Relative bioavailability of fedratinib through various alternative oral administration methods in healthy adults” (Cancer Chemotherapy and Pharmacology, 2023).
Where two headings read alike, the source gives them in different places. Marks after values point to notes of the source that are not given here.

Experiments:
[1] = Phase 1 relative bioavailability study part 2: plasma pharmacokinetics of fedratinib (3-period crossover); type: in vivo, human; settings: for Cmax / Tmax / AUC(0-t) / AUC(0-inf) / half-life: human, plasma; for half-life: read-out: t½, mean (SD) (converted)
Method: Study part 2 was a 3-period, 6-sequence, open-label, crossover design (Fig. 1B). Treatment 2A (reference) consisted of fedratinib 400 mg (4 × 100-mg capsules) administered orally alongside a nutritional supplement. Treatment 2B (test) consisted of fedratinib 400 mg dispersed in the nutritional supplement (180 mL, Ensure Plus), administered via nasogastric tube, and flushed with 60 mL of sterile water. Treatment 2C (test) consisted of fedratinib 400 mg as a divided dose (2 × 100-mg capsules BID) administered alongside the nutritional supplement. Participants were randomized to receive treatment in one of the following sequences: 2A–2B–2C, 2A–2C–2B, 2B–2A–2C, 2B–2C–2A, 2C–2A–2B, or 2C–2B–2A. […] In the case of an evening (second) dose in the divided dosing plan of treatment 2C, participants were directed to pre-fast at least 2 h before fedratinib dose, and 4 h after fedratinib dose, with water restricted from approximately 2 h before and 1 h after dosing, excluding water given with the treatment.
Approximately 1 h before each fedratinib administration, ondansetron oral tablet (film coated) 8 mg was given orally to reduce the potential for fedratinib-related nausea and vomiting. There was a washout period of at least 12 days between each dose of fedratinib. The duration from screening through the follow-up phone call was approximately 10 weeks. Participants resided at the clinical site from days -1 to 23 (study part 1), or days -1 to 35 (study part 2). If a participant discontinued from the study for any reason, an early termination visit was performed, with only the safety assessments scheduled for the day of discharge taking place. Additionally, each participant who discontinued also received a follow-up phone call 4 (± 2) days after completion of the early termination visit.
For study part 1, and part 2 treatments 2A and 2B, blood samples were collected pre-dose (0 h) and at 0.5, 1, 1.5, 2, 3, 4, 6, 8, 12, 24, 48, 72, 120, 168, 192, and 240 h post-dose. For treatment 2C, blood samples were collected pre-dose (0 h) and at 0.5, 1, 1.5, 2, 3, 4, 6, 8, 12, 12.5, 13, 13.5, 14, 15, 16, 18, 24, 48, 72, 120, 168, 192, and 240 h post-dose of the first dose. The plasma concentration of fedratinib was measured using a validated liquid chromatography-tandem mass spectrometry assay with a lower limit of quantification of 1.00 ng/mL [12, 20].
Plasma PK parameters were calculated using noncompartmental methods by a validated PK analysis program (Phoenix® WinNonlin®, v8.3.4 [Certara USA, Inc., Princeton, NJ, USA]) using actual times. The PK parameters determined for fedratinib Cmax, Tmax, AUC from time 0 to the time of the last quantifiable concentration (AUC0–t), AUC from time 0 to infinity (AUC0–∞), and t½. Additionally for treatment 2C, Cmax and Tmax were estimated after both the first dose (Cmax and Tmax) and the second dose (Cmax2 and Tmax2). AUC0–t and AUC0–∞ were estimated from time 0 (the first dose) through 240 h after the first dose. AUC parameters were calculated using the linear-log trapezoidal method.
The sample size for this study was based on consideration of the precision in the comparison of PK parameters, represented by the 90% confidence interval (CI) of the geometric mean ratios of Cmax and AUC of fedratinib. […] Only participants with valid PK data were included in the summary statistics and statistical analysis.
To compare the PK parameters and estimated relative bioavailability of fedratinib following different administration methods in each study part (treatment 1B to 1A, and treatment 2B and 2C to 2A), a linear mixed-effect model with treatment, period, and sequence as fixed effects and participant nested within sequence as a random effect was fitted to the natural log-transformed PK parameters (Cmax, AUC0–t, and AUC0–∞) for use in estimation of effects and construction of CIs. […]

[2] = design: method as in earlier work; settings: 400 mg dosing in patients with myelofibrosis; range 2–4 h; cited from earlier work
[3] = system: patients with myelofibrosis resistant/intolerant to prior ruxolitinib; design: method as in doi:10.1182/blood-2022-156669; settings: fedratinib 400 mg/day, FREEDOM trial, 38 patients; cited from earlier work
[4] = Treatment 2B vs 2A (nasogastric tube vs intact capsules), linear mixed-effect model
[5] = Treatment 2C: 400 mg oral divided dose (2 × 100-mg capsules BID) with nutritional supplement, after second dose, n = 30

## Cc1cnc(Nc2ccc(OCCN3CCCC3)cc2)nc1Nc1cccc(S(=O)(=O)NC(C)(C)C)c1 [fedratinib]
[1]; [4]
  AUC0–∞ geometric mean ratio (90% CI): 0.863 (0.816–0.912)
  Cmax geometric mean ratio (90% CI): 0.898 (0.837–0.963)
[1]; Treatment 2C vs 2A (divided dose vs intact capsules QD), linear mixed-effect model
  AUC0–∞ geometric mean ratio (90% CI): 0.850 (0.804–0.899)
[1]; [5]
  Cmax2, geometric mean (Geo. %CV): 487.3^b (44.0) ng/mL
  Tmax2, median (range): 3.9^b (1.0–6.0) h
[1]; oral, 400 mg, Treatment 2C: 400 mg divided dose (2 × 100-mg capsules BID), after first dose, n = 30, read-out: Cmax, geometric mean (statistical analysis)
  Cmax: 641 ng/mL
[1]; oral, 400 mg, Treatment 2C: 400 mg divided dose (2 × 100-mg capsules BID), after first dose, n = 30, read-out: Tmax, median (statistical analysis)
  Tmax: 2.26 h
[1]; oral, 400 mg, Treatment 2C: 400 mg divided dose (2 × 100-mg capsules BID), n = 30, read-out: AUC0–t, geometric mean (statistical analysis)
  AUC(0-t): 18900 ng·h/mL
[1]; oral, 400 mg, Treatment 2C: 400 mg divided dose (2 × 100-mg capsules BID), n = 30, read-out: AUC0–∞, geometric mean (statistical analysis)
  AUC(0-inf): 21300 ng·h/mL
[1]; other: nasogastric tube, 400 mg, Treatment 2B: single 400 mg via nasogastric tube, capsule contents dispersed in nutritional supplement, n = 30, read-out: AUC0–t, geometric mean (Geo. %CV)
  AUC(0-t): 19200 ng·h/mL
[1]; other: nasogastric tube, 400 mg, Treatment 2B: single 400 mg via nasogastric tube, capsule contents dispersed in nutritional supplement, n = 30, read-out: AUC0–∞, geometric mean (Geo. %CV)
  AUC(0-inf): 21600 ng·h/mL
[1]; other: nasogastric tube, 400 mg, Treatment 2B: single 400 mg via nasogastric tube, capsule contents dispersed in nutritional supplement, n = 30, read-out: Cmax, geometric mean (Geo. %CV)
  Cmax: 1250 ng/mL
[1]; other: nasogastric tube, 400 mg, Treatment 2B: single 400 mg via nasogastric tube, capsule contents dispersed in nutritional supplement, n = 30, read-out: Tmax, median (range)
  Tmax: 1.9 h
[1]; other: nasogastric tube, 400 mg, Treatment 2B: single 400 mg via nasogastric tube, capsule contents dispersed in nutritional supplement, n = 30
  half-life: 106 h
[1]; other: nasogastric tube, 400 mg, Treatment 2B: single 400 mg via nasogastric tube, dispersed in nutritional supplement, n = 30, read-out: AUC0–t, geometric mean (statistical analysis)
  AUC(0-t): 19200 ng·h/mL
[1]; other: nasogastric tube, 400 mg, Treatment 2B: single 400 mg via nasogastric tube, dispersed in nutritional supplement, n = 30, read-out: AUC0–∞, geometric mean (statistical analysis)
  AUC(0-inf): 21600 ng·h/mL
[1]; other: nasogastric tube, 400 mg, Treatment 2B: single 400 mg via nasogastric tube, dispersed in nutritional supplement, n = 30, read-out: Cmax, geometric mean (statistical analysis)
  Cmax: 1250 ng/mL
[1]; other: nasogastric tube, 400 mg, Treatment 2B: single 400 mg via nasogastric tube, dispersed in nutritional supplement, n = 30, read-out: Tmax, median (statistical analysis)
  Tmax: 1.87 h
[1]; po, 400 mg, Treatment 2A: single 400 mg oral, 4 × 100-mg intact capsules with nutritional supplement, n = 30, read-out: AUC0–t, geometric mean (Geo. %CV)
  AUC(0-t): 22600 ng·h/mL
[1]; po, 400 mg, Treatment 2A: single 400 mg oral, 4 × 100-mg intact capsules with nutritional supplement, n = 30, read-out: AUC0–∞, geometric mean (Geo. %CV)
  AUC(0-inf): 25000 ng·h/mL
[1]; po, 400 mg, Treatment 2A: single 400 mg oral, 4 × 100-mg intact capsules with nutritional supplement, n = 30, read-out: Cmax, geometric mean (Geo. %CV)
  Cmax: 1390 ng/mL
[1]; po, 400 mg, Treatment 2A: single 400 mg oral, 4 × 100-mg intact capsules with nutritional supplement, n = 30, read-out: Tmax, median (range)
  Tmax: 2.9 h
[1]; po, 400 mg, Treatment 2A: single 400 mg oral, 4 × 100-mg intact capsules with nutritional supplement, n = 30
  half-life: 96.8 h
[1]; po, 400 mg, Treatment 2A: single 400 mg oral, intact capsules with nutritional supplement, n = 30, read-out: AUC0–t, geometric mean (statistical analysis)
  AUC(0-t): 22600 ng·h/mL
[1]; po, 400 mg, Treatment 2A: single 400 mg oral, intact capsules with nutritional supplement, n = 30, read-out: AUC0–∞, geometric mean (statistical analysis)
  AUC(0-inf): 25000 ng·h/mL
[1]; po, 400 mg, Treatment 2A: single 400 mg oral, intact capsules with nutritional supplement, n = 30, read-out: Cmax, geometric mean (statistical analysis)
  Cmax: 1390 ng/mL
[1]; po, 400 mg, Treatment 2A: single 400 mg oral, intact capsules with nutritional supplement, n = 30, read-out: Tmax, median (statistical analysis)
  Tmax: 2.67 h
[1]; po, 400 mg, Treatment 2C: 400 mg oral divided dose (2 × 100-mg capsules BID) with nutritional supplement, after the first dose, n = 30, read-out: Cmax, geometric mean (Geo. %CV)
  Cmax: 641 ng/mL
[1]; po, 400 mg, Treatment 2C: 400 mg oral divided dose (2 × 100-mg capsules BID) with nutritional supplement, after the first dose, n = 30, read-out: Tmax, median (range)
  Tmax: 1.9 h
[1]; po, 400 mg, Treatment 2C: 400 mg oral divided dose (2 × 100-mg capsules BID) with nutritional supplement, after the second dose, n = 30
  half-life: 96.7 h
[1]; Treatment 2C: 400 mg oral divided dose (2 × 100-mg capsules BID) with nutritional supplement, from time 0 (first dose) through 240 h, n = 30, read-out: AUC0–t, geometric mean (Geo. %CV)
  AUC(0-t): 18900 ng·h/mL
[1]; Treatment 2C: 400 mg oral divided dose (2 × 100-mg capsules BID) with nutritional supplement, from time 0 (first dose), n = 30, read-out: AUC0–∞, geometric mean (Geo. %CV)
  AUC(0-inf): 21300 ng·h/mL
[2]
  Time to peak concentration, median: 3 h
[3]
  Patients achieving ≥ 35% spleen volume reduction at the end of cycle 6: 25.7%
  Patients achieving ≥ 50% reduction in total symptom score at end of cycle 6: 44.4%
  Patients with best overall response of ≥ 35% spleen volume reduction at any time: 62.9%
